Here are results for 14 compounds from ChEMBL document CHEMBL3616463, “Differential influence of 7 cations on 16 non-competitive NMDA receptor blockers” (Bioorg Med Chem Lett, 2015).

The IC50 is the concentration that gives 50% inhibition.

For this assay, the target named is Glutamate NMDA receptor. The format is cell membranes, Rattus norvegicus, Wistar, Brain, Membrane.

Description: Displacement of [3H]MK-801 from NMDA receptor in Wistar rat brain membranes by scintillation counting analysis

Compound `NCCCCCCCCCCCCN` gave an IC50 of 8.39 µM.

As for `CN(C)CCCN1c2ccccc2Sc2ccc(Cl)cc21` [CHLORPROMAZINE], the IC50 stood at 21 µM.

`C[C@](N)(Cc1ccccc1)c1ccccc1`: half-maximal inhibition (IC50) was put at 0.78 µM.

As to `N=C(N)c1ccc(N2CCCN(c3ccc(C(=N)N)cc3)CC2)cc1`, half-maximal inhibition (IC50) required 0.35 µM.

For `C[C@@H](CN)C(c1cccc(F)c1)c1cccc(F)c1`, the IC50 is 0.11 µM.

`CN[C@@]1(c2ccccc2Cl)CCCCC1=O` yielded an IC50 of 2.12 µM.

For `COC(=O)[C@@H](N)Cc1c[nH]c2ccccc12` [TRYPTOPHAN METHYL ESTER], the IC50 turned out to be 169 µM.

Compound `NCCCCCCCCc1ccc(CCCCN)s1` returned an IC50 of 0.43 µM.

Consider `NCCCC12CCC(c3ccccc31)c1ccccc12`, for which half-maximal inhibition (IC50) required 7.44 µM.

For the compound `NC(N)=NCCCCN=C(N)N` [ARCAINE], the IC50 turned out to be 6.39 µM.

On to `CN[C@]1(c2ccccc2Cl)CCCCC1=O` [ESKETAMINE], for which the midpoint of inhibition, the IC50, lay at 0.64 µM.

Consider `NCCOC(c1ccccc1)c1ccccc1`, for which the IC50 was determined as 5.48 µM.

`NCCCN1c2ccccc2Sc2ccc(Cl)cc21` [NOR2-CHLORPROMAZINE] showed an IC50 of 5.79 µM.

`c1ccc(C2(N3CCCCC3)CCCCC2)cc1` [PHENCYCLIDINE] registered an IC50 of 0.11 µM.
